Data on five molecules can be found in patent US20240360089A1, “Metabolically Stable HDAC Inhibitors with Trifluoromethylpyruvamide as Metal-Binding Group” (The University of Toledo, priority 2023, published 2024).

The subject of one series is HCT116 cells. Briefly: Growth inhibition / cell viability assay (methylene blue), HCT116. It counts as cell-based, human. Conditions: for IC50: Homo sapiens, HCT-116. The method, then:
(§1) Cell feasibility was examined using methylene blue staining. Cells were plated at a rate of 5000/well in 96 well plates (n=3) respectively and treated the next day. Three days after treatment, cells were fixed/stained in methylene blue saturated in 50% ethanol for 30 min at room temperature. Excessive water was used to wash off extra dye from the plates.

The subject of series [1] is NCI-H522 lung cancer cell line. Briefly: Growth inhibition / cell viability assay (methylene blue), NCI-H522. Format: cell-based. The conditions noted are these: Homo sapiens. As for the experimental part:
as §1

Another series has as its system WI38 cells. Put plainly: Cell survival assay, normal cell line WI38. Format: cell-based. Conditions: Homo sapiens, WI-38, FIG. 14A, maximum 30 μM. From the text: (§2) This reaffirms the selectivity of TFPAs for cancer cells over normal cells.
(§3) HCT116 human colon cancer cells, NCI-H522 human lung cancer cells, HT1080 fibrosarcoma cells, HeLa cervical cancer cells, U2OS osteosarcoma cells, MDA-MB-231 and MDA-MB-468 breast cancer cells, WI38 diploid human cell line, and human retinal pigment epithelial RPE cells were preserved in Dulbecco's Modified Eagle's medium (Mediatech, Inc.) supplemented with 10% calf serum (Atlanta Biologicals) or 10% fetal bovine serum (Gemini Bio-Products #100-106) and 1000 U/ml of both Penicillin and Streptomycin (Mediatech, Inc.) at 37° C. with 5% CO2. Cell feasibility was examined using methylene blue staining. Cells were plated at a rate of 5000/well in 96 well plates (n=3) respectively and treated the next day. Three days after treatment, cells were fixed/stained in methylene blue saturated in 50% ethanol for 30 min at room temperature. Excessive water was used to wash off extra dye from the plates.

The next series concerns RPE cells. Put plainly: Cell survival assay, normal cell line RPE. Format: cell-based. Conditions: Homo sapiens, FIG. 14A, maximum 30 μM.
From the text: as §2, §3

The test system of series [2] is HT1080 fibrosarcoma cell line. Briefly: Growth inhibition assay (methylene blue), HT1080. The conditions noted are these: Homo sapiens, HT-1080, Table 4, unit inferred. Format: cell-based. As for the experimental part:
as §1

Series [3] deals with HeLa cervical cancer cell line. Put plainly: Growth inhibition assay (methylene blue), HeLa. It counts as cell-based. Conditions: Homo sapiens, Table 4, unit inferred. As for the experimental part: as §1
The subject of series [4] is U2OS osteosarcoma cell line. Put plainly: Growth inhibition assay (methylene blue), U2OS. Format: cell-based. The conditions noted are these: Homo sapiens, Table 4, unit inferred. The method, then: as §1
Series [5] relates to MDA-MB-468 breast cancer cell line. Put plainly: Growth inhibition assay (methylene blue), MDA-MB-468. It counts as cell-based. Conditions: Homo sapiens, Table 4, unit inferred. As for the experimental part: as §1
The subject of series [6] is MDA-MB-231 breast cancer cell line. Put plainly: Growth inhibition assay (methylene blue), MDA-MB-231. Format: cell-based. The conditions noted are these: Homo sapiens, Table 4, unit inferred. The method, then: as §1
The subject of series [7] is sixty cell lines. Put plainly: NCI 60 cell five-dose assay. Format: cell-based. Conditions: Total Growth Inhibition.
The next series relates to PARP1. Briefly: Western blot analysis of PARP1 cleavage in HCT116 cells. It counts as cell-based, human. Conditions: HCT116 cells treated for 24 h; measure of caspase dependent cell death. The method, then:
FIG. 13: Western blot analysis of PARP1 cleavage. HCT116 cells were treated with compounds 83, 84, and 85 at the indicated concentrations for 24 hr. Western blots were probed with an antibody that recognizes a cleaved form of PARP (Cell Signaling Technology 5626) as a measure of caspase dependent cell death.
To determine whether the compounds herein induced apoptosis, the enzyme Poly (ADP ribose) polymerase 1 (PARP1) was analyzed by western blotting. Caspase-dependent proteolytic cleavage of PARP1 is one of the hall marks of apoptosis and antibodies that specifically recognize the cleavage products are available. […] HCT116 cells were treated with compounds 83, 84, and 85 for 24 h.
(§4) NCI-H522 cell pellets obtained were lysed using lysis buffer containing 50 mM Tris (pH 7.4), 150 mM NaCl, 0.5% NP-40, (supplemented with 1 μg/ml aprotinin, 2 μg/ml leupeptin, 1 μg/ml pepstatin A, 1 mM DTT, and […]) for 30 minutes on ice and centrifuged at 13×10^3 g for 25 minutes at 4° C. The protein levels of the obtained lysates were normalized using BCA Protein Assay Kit (Pierce) and separated by SDS-polyacrylamide gel electrophoresis (12.5% acrylamide). Transfer to polyvinylidene difluoride membranes (Millipore) was followed by obstruction of membranes with blocking buffer containing 5% (w/v) non-fat dry milk dissolved in PBST [1×PBS containing 0.05% (v/v) Tween 20] for 1 hour at room temperature. Membranes were then incubated with corresponding primary antibodies overnight at 4° C. The membranes were then washed (3×15 min each) with PBST and incubated with secondary antibodies conjugated to horse-radish peroxidase, obtained from Biorad, and used at a dilution of 1:10,000. Bound antibodies were detected using enhanced chemiluminescence (Biorad).

For series [8], the system named is sixty cell lines. Briefly: NCI 60 cell one-dose assay. Format: cell-based. The conditions noted are these: result in words.
Series [9] deals with acetyl-H3 and pan-acetyl-lysine. Put plainly: Hyperacetylation assay by western blot. It counts as cell-based, human. Conditions: […], 5, and 10 μM, dose dependent. As for the experimental part: The hallmark of HDAC inhibition is the hyperacetylation of several proteins which are substrates for HDACs. Thus, histone H3 hyperacetylation assay of some active compounds was carried out by western blot using antibodies for Histone H3 and pan-acetyl lysine.
as §4

A short description of series [10]: S9 fraction metabolic stability assay (LC-ESI-MS). It counts as in vitro ADME. The conditions noted are these: human liver S9 fraction. The source says:
Previous studies established that trifluoromethyl ketones are metabolically unstable and reduced in vivo to trifluoromethyl alcohols (TFMAs). This metabolic reduction caused a major loss in activity. […] It was believed that in TFPAs, the hydrate form of the ketone is stabilized compared to TFMKs, and is therefore less susceptible to reductive metabolism. […] Metabolic stability studies are primarily conducted using liver microsomal assays, as the predominant cytochrome P450 enzymes present in them are responsible for the metabolism of most xenobiotics in the human body. However, P450 transformations are mostly oxidative in nature, precluding their use to assess the stability of ketone drugs against reductive metabolism. […] Thus, using a liver extract containing both cytosol and microsomal enzymes would be more appropriate for this assay. This was accomplished by using the S9 fraction, which is basically the supernatant obtained from centrifugation of hepatocytes at 9000 g and contains both liver cytosol and microsomal enzymes. LC-ESI-MS was used to monitor the reduction of TFPA 60 over time and it was compared with TFMK 91.
A protocol similar to the one previously employed by others using Human Liver S9 fractions instead of liver microsomes was used for the metabolism studies. The assay was initiated by incubating a mixture of the substrate (0.02 mM), buffer (0.1M), and NADPH (1 mM) at 37° C. for ten minutes, followed by addition of the S9 fraction (0.5 mg) to the mixture and gentle mixing. The total volume of the reaction mixture was maintained at 1 mL. […] The reactions in the aliquots were terminated by adding an equal volume of ethyl acetate, mixing thoroughly, and transferring into micro centrifuge tubes. They were vortexed for 2 minutes and then subjected to centrifugation at 10,000×g for 15 minutes to remove the proteins. The top organic layers were extracted and evaporated under reduced pressure. The organic residues from the aliquots were dissolved in methanol first, then diluted 1:1 with water, and analyzed using LC-ESI-MS. A 450 μL aliquot of compound 60 with concentration of 0.02 mM contains 9 nanomoles, which after evaporation, was dissolved in 500 μL of methanol to give 18 μM in concentration of 60. This was diluted 1:1 with water to give a final concentration of 9 μM, which was used for LC-ESI-MS. Similarly, 200 μL of TFMK 91 at a concentration of 0.02 mM contains 4 nanomoles, which after removing ethyl acetate, and dissolving in 250 μL of methanol gives 16 μM concentration of 91. This was diluted 1:1 with water to give 8 μM final concentration for LC-ESI-MS.
The solvent flow rate was 0.2 mL/min, and the sample injection volume was 20 μL. […]

The conditions of series [11]: stated in the method as reason for the sampling interval; cited from earlier work.
The mark [12] stands for this setting: cap group SAR, HCT116 cell line, maximum concentration of 40 μM, read-out: IC50.
Where [13] appears, read: Table 4, growth inhibition, unit inferred, read-out: IC50 H522.

Structures are written as SMILES. Like-named read-outs stand apart in the source and are kept apart here.

As to `COc1ccc(NC(=O)CCCCCCNC(=O)C(O)(O)C(F)(F)F)cc1` [Compound 55, N-(4-methoxyphenyl)-7-(3,3,3-trifluoro-2,2-dihydroxypropanamido)heptanamide], the IC50 in the series on HCT116 cells (cancer vs normal cells study, FIG. 14A, maximum 30 μM, read-out: IC50 HCT116) is 3.13 µM; with HCT116 cells (setting [12]), 4.52 µM; in series [1] (cancer vs normal cells study, FIG. 14A, maximum 30 μM, read-out: IC50 NCI-H522), 8.05 µM; with WI38 cells, over 30 µM; with RPE cells it was over 30 µM. In addition, in the series on HCT116 cells (maximum concentration of 30 μM, FIG. 14B), the “cell survival HCT116” value is on record as under 20%.
As for `O=C(CCCCCCNC(=O)C(O)(O)C(F)(F)F)Nc1nc2ccccc2s1` [Compound 61, N-(benzo[d]thiazol-2-yl)-7-(3,3,3-trifluoro-2,2-dihydroxypropanamido)heptanamide], the half-inhibitory concentration (IC50) was 2.37 µM with HCT116 cells (setting [12]); 2.86 ± 0.36 µM in series [1] (setting [13]); 2.65 ± 0.21 µM in series [2]; 1.52 ± 0.23 µM in series [3]; 1.41 ± 0.18 µM in [4]; 1.31 ± 0.18 µM in series [5]. This molecule returned a concentration for half-maximal inhibition (IC50) in [6] of 1.83 ± 0.35 µM. In addition, the concentration for total growth inhibition (TGI) in the series on sixty cell lines [7] was 21.37 µM.
Regarding `COc1ccc2sc(NC(=O)CCCCCCNC(=O)C(O)(O)C(F)(F)F)nc2c1` [Compound 83, N-(5-methoxybenzo[d]thiazol-2-yl)-7-(3,3,3-trifluoro-2,2-dihydroxypropanamido)heptanamide], the half-maximal inhibitory concentration (IC50) in the series on HCT116 cells (setting [12]) worked out at 2.18 µM; in series [1] (setting [13]), 3.23 ± 0.41 µM; in [2], 2.28 ± 0.47 µM; in series [4], 3.29 ± 0.46 µM; in [5] it was 3.65 ± 0.11 µM; in [6], 0.81 ± 0.1 µM. The “TGI” value in the series with sixty cell lines [7] stood at 12.3 µM. Besides, the “PARP1 cleavage (cleaved PARP1)” value with PARP1 was “Dose-dependent elevation of cleaved PARP1 was detectable”.
With `COc1ccc(-c2cnc(NC(=O)CCCCCCNC(=O)C(O)(O)C(F)(F)F)s2)cc1` [Compound 84, N-(5-(4-methoxyphenyl)thiazol-2-yl)-7-(3,3,3-trifluoro-2,2-dihydroxypropanamido)heptanamide], the “cytostatic / cytotoxic activity in NCI 60 assays” value in the series with sixty cell lines [8] is reported as “cytotoxic effects”. Also, the “TGI” value in the series on sixty cell lines [7] was found to be 8.51 µM. Further, in [9], the “levels of acetylated H3” value is given as “increased levels” and the levels of pan-acetyl-lysine entry was “increased levels”. Besides, the “PARP1 cleavage (cleaved PARP1)” value in the series with PARP1 is given as “Absence of PARP1 cleavage”.
As for `O=C(CCCCCCC(=O)C(F)(F)F)Nc1ccccc1` [Compound 91, reference compound], the IC50 in the series on HCT116 cells (setting [12]) worked out at 10.1 µM. In [10] (NADPH, 37° C., LC-ESI-MS, aliquots every 15 minutes), the “time to complete disappearance (metabolic reduction) of parent M+1 peak” value is at most 15 min. The “metabolic reduction to the alcohol” value in [10] (result in words) is given as “quantitative biological reduction”. Besides, the half-life entry in [11] is on record as “less than 30 minutes”.
